The NIST ThermoML archive (doi:10.1016/j.jct.2009.05.010)
“And” between values parts separate entries of the source, which are not always exact repeats. Equal values may be shown once.

Settings: Crystal, Calculated from knudsen effusion weight loss

O=[N+]([O-])c1cc(Br)ccc1Br [1,4-dibromo-2-nitrobenzene]
Settings | vapor or sublimation pressure
302.14 K | 9.9e-05 kPa and 9.7e-05 kPa
304.16 K | 0.000121 kPa and 0.000125 kPa and 0.000123 kPa
306.15 K | 0.000167 kPa and 0.000166 kPa and 0.000163 kPa
308.15 K | 0.000204 kPa and 0.000205 kPa and 0.000203 kPa
310.14 K | 0.00026 kPa and 0.000264 kPa and 0.000261 kPa
312.14 K | 0.000327 kPa and 0.000332 kPa and 0.000329 kPa
314.14 K | 0.000418 kPa and 0.000419 kPa
316.14 K | 0.000522 kPa and 0.000527 kPa and 0.000524 kPa
318.15 K | 0.000666 kPa and 0.000675 kPa and 0.000673 kPa
320.15 K | 0.000884 kPa and 0.000858 kPa and 0.000838 kPa
322.14 K | 0.001072 kPa and 0.001068 kPa and 0.001063 kPa
